We go through two compounds from patent US9018242B2, “Salt form of tyrosine kinase inhibitor” (Jiangsu Simcere Pharmaceutical R&D Co., Ltd, priority 2011, dated 2015).

Values after ≈ are worked out from the molar mass of the structure shown.

A short description of data set [1]: Hygroscopicity measurement (weight gain). The data set is classed as physicochemical. To be noted: 25±1° C., relative humidity 80±2%, 24 hours. The method, then:
The method for measuring the hygroscopicity may include: placing a certain amount of a sample to be tested into a precisely weighed glass weighing bottle (m1) with a plug and precisely weighing (m2); placing the opened weighing bottle into a thermostatic dryer (with saturated ammonium sulfate solution placed at the bottom, with a relative humidity of 80±2%) at 25±1° C. for 24 hours; covering the weighing bottle with the plug and precisely weighing (m3), and calculating the percent of weight gain of the sample to be tested according to the following equation: […]
The measurement method includes: placing a certain amount of sample to be tested into a precisely weighed glass weighing bottle (m1) with a plug and precisely weighing (m2); placing the opened weighing bottle in a thermostated dryer (with saturated ammonium sulfate solution placed at the bottom, with a relative humidity of 80±2%) at 25±1° C. for 24 hours; covering the weighing bottle with the plug and precisely weighing (m3).
Characterization of the hygroscopicity and definition of the hygroscopic weight gain:
Deliquescence: sufficient moisture was absorbed to form liquid;
Slight hygroscopicity: hygroscopic weight gain was less than 2% and not less than 0.2%: […]

Data set [2] is described as follows: Solubility in water by HPLC. The data set is classed as physicochemical. As to conditions: thermodynamic from solid; purified water, 25° C. The method, then:
Liquid chromatograph: Agilent 1200 HPLC system (diode array detector), ChemStation
Mobile phase: acetonitrile/water
Detection wavelength: 264 nm
About 100 mg sample to be tested was precisely weighed and placed into a 100 ml graduated flask at 25° C.; an appropriate amount of solvent [acetonitrile/water (80:20)] was added to dissolve the sample under ultrasonic sound, and the solution was diluted to a given scale and shaken up; 10 μl resulting solution was precisely measured and loaded into the liquid chromatograph, the chromatogram was recorded, and the peak area Scontrol was measured.
10 ml purified water was measured and placed into a 25 ml Kjeldahl flask. The sample to be tested was gradually added at 25° C. until an insoluble solid appeared in the solution. The solution was treated under ultrasonic sound for 30 min and the insoluble solid was filtered off. 10 μl filtrate was precisely weighed and loaded into the liquid chromatograph, the chromatogram was recorded, and the peak area Stest was measured.

The nature of data set [3]: Plasma exposure (AUC) in rats after gavage administration. The data set is classed as in vivo. To be noted: rat, po, male SD rats, 10 mg/kg (based on pharmaceutically active compound), salts dissolved in pure water, active compound as suspension in 0.5% CMC, up to 24 h. The method, then: Laboratory animal: male SD rats
Dosage: 10 mg/kg (based on pharmaceutically active compound)
Formulation for salts: dissolving in pure water
(§1) Formulation for pharmaceutically active compound: suspension in CMC (carboxymethylcellulose), 0.5%
Animal Grouping and Testing Course:
Each group includes three male rats having a weight of 180 to 210 g. Gavage administration was performed; the blood was collected at point of time: 5 min, 15 min, 30 min, 45 min, 1 h, 2 h, 4 h, 6 h, 10 h and 24 h; about 250 μl blood was collected from orbital venous plexus into a heparin-containing tube, centrifuged, and 100 μl plasma was used for LC-MS analysis.

For data set [4], the system named is human colon cancer HT-29 xenografts. The data set is described as follows: Therapeutic effect on human colon cancer HT-29 xenografts in nude mice. The format is in vivo, BALB/cA-nude mice. To be noted: 40 mg/kg (based on pharmaceutically active compound), gavage for 21 days, L-malate in pure water, active compound as suspension in 0.5% CMC. The method, then: Laboratory animal: BALB/cA-nude mice, 6-7 weeks, ♀
Dosage: 40 mg/kg (based on pharmaceutically active compound)
Formulation for L-malate: dissolving in pure water
as §1
Nude mice were subcutaneously inoculated with human colon cancer HT-29 cells. After the tumor grew to a size of 150 to 250 mm^3, the animals were randomly divided into three groups (d0). The animals were continuously administered through gavage for 21 days, and the tumor volume was measured 2 to 3 times per week. The tumor volume (V) was calculated according to the equation: V=1/2×a×b^2, where a and b represent length and width respectively.
The relative proliferation of tumor=T/C(%)=(T−T0)/(C−C0)×100, where T and C are the tumor volumes at the end of experiment, T0 and C0 are the tumor volumes at the start of experiment; the tumor inhibition rate=1−T/C(%).
A general note: Xenograft models place foreign cells or tissue in a host animal.

What is called solubility is how much of the substance goes into solution per volume. Low readings indicate little dissolved substance, high ones much dissolved substance. One may read the AUC(0-t) as exposure summed from dosing to a finite time, without extrapolation to infinity. Consider `CCN(CC)CCNC(=O)c1c(C)[nH]c2c1CCC/C2=C1/C(=O)Nc2ccc(F)cc21.O=C(O)C[C@H](O)C(=O)O` [L-malate, (Z)—N-[2-(diethylamino)ethyl]-2-methyl-7-(1,2-dihydro-5-fluoro-2-oxo-3H-indol-3-ylidene)-4,5,6,7-tetrahydro-1H-indol-3-carboxamide L-malate], for which the Hygroscopicity result in data set [1] was “Almost no hygroscopicity”. Moreover, the solubility at 30 min in data set [2] was 38.6 mg/mL. For the same compound, the AUC(0-t) in data set [3] came to 1.49 µg·h/mL. For the same compound, in data set [4], the “Tumor Inhibition Rate” value was 54%.
As for `CCN(CC)CCNC(=O)c1c(C)[nH]c2c1CCC/C2=C1/C(=O)Nc2ccc(F)cc21` [Pharmaceutically active compound, (Z)—N-[2-(diethylamino)ethyl]-2-methyl-7-(1,2-dihydro-5-fluoro-2-oxo-3H-indol-3-ylidene)-4,5,6,7-tetrahydro-1H-indol-3-carboxamide], the Hygroscopicity entry in data set [1] is recorded as “Almost no hygroscopicity”. The same compound came in with a solubility at 30 min in data set [2] of 0.02 mg/mL (≈ 47.1 µM). In addition, the AUC(0-t) in data set [3] turned out to be 0.128 µg·h/mL. Besides, in data set [4], the “Tumor Inhibition Rate” value is recorded as 40%.
